Measured values as given in patent publication US5955462A, “Anti-neurogenic inflammatory compounds and compositions and methods of use thereof” (Harbor Branch Oceanographic Institution, Inc., priority 1997, dated 1999).
“And” between values parts separate entries of the source, which are not always exact repeats. Equal values may be shown once.

How the values were obtained:
[1] = system: mouse ear; experiment: Inhibition of resiniferatoxin (RTX)-induced edema in a mouse ear model; format: in vivo; settings: for ED50 for inhibition of RTX-induced edema: dose response curve
Method: A. Inhibition of Capsaicin-Induced Inflammation (Edema) of the Mouse Ear. Induction of mouse ear edema was based on known methods. Inoue, H., Nagata, N., and Koshihara, Y. (1993). Profile of capsaicin-induced mouse ear oedema as neurogenic inflammatory model: comparison with arachidonic acid-induced ear oedema. Br. J. Pharm 110:1614-20. […] CAP alone (250 μg/ear) or in combination with various dilutions of test compound are applied to both sides of the left ears (5 mice per treatment group) and acetone is applied to all right ears. After a 30 minute incubation, the mice are sacrificed, the ears removed, and bores taken and weighed. Edema is measured by subtracting the weight of the right ear (acetone control) from the weight of the left ear (treated).
B. Inhibition of Resiniferatoxin (RTX)-induced edema in a mouse ear model. Topsentin was also tested for its inhibitory activity against inflammation induced by the neurogenic inflammation producing compound, resiniferatoxin (RTX). Using a mouse ear model, the experimental procedure is substantially the same as that described for the capsaicin-induced inflammation assay (see section A of this Example, above).

[2] = system: mouse ear; experiment: Inhibition of capsaicin-induced inflammation (edema) of the mouse ear; format: in vivo; settings: for potency in inhibiting neurogenic inflammation compared with capsazepine: capsaicin-induced edema in mouse ears
From the text: The assay employing mice (e.g., administration to the ear of the mouse) is routinely used by those skilled in the art and is accepted as indicative of anti-inflammatory activity in humans. This assay is described below.
A. Inhibition of Capsaicin-Induced Inflammation (Edema) of the Mouse Ear. Induction of mouse ear edema was based on known methods. Inoue, H., Nagata, N., and Koshihara, Y. (1993). Profile of capsaicin-induced mouse ear oedema as neurogenic inflammatory model: comparison with arachidonic acid-induced ear oedema. Br. J. Pharm 110:1614-20. Compounds to be tested for anti-neurogenic inflammatory activity are topically applied in acetone to the ears of mice in a solution that includes the edema-causing irritant, capsaicin (CAP). CAP alone (250 μg/ear) or in combination with various dilutions of test compound are applied to both sides of the left ears (5 mice per treatment group) and acetone is applied to all right ears. After a 30 minute incubation, the mice are sacrificed, the ears removed, and bores taken and weighed. Edema is measured by subtracting the weight of the right ear (acetone control) from the weight of the left ear (treated). Results are recorded as % decrease (inhibition) or % increase (potentiation) in edema relative to the control group edema.

[3] = Mus musculus, topical, 3.12 μg/ear, read-out: % Inh. of Edema
[4] = Mus musculus, topical, 6.25 μg/ear, read-out: % Inh. of Edema
[5] = Mus musculus, topical, 12.5 μg/ear, read-out: % Inh. of Edema
[6] = Mus musculus, topical, 25 μg/ear, read-out: % Inh. of Edema
[7] = Mus musculus, topical, 50 μg/ear, read-out: % Inh. of Edema
[8] = 3.12 μg/ear, listed as hamacanthin b
[9] = 50 μg/ear, listed as hamacanthin b

Compound | Mean difference ([1]; 3.12 μg/ear) [mg] | Mean difference ([1]; 6.25 μg/ear) [mg] | Mean difference ([1]; 12.5 μg/ear) [mg] | Mean difference ([1]; 25 μg/ear) [mg] | inhibition of RTX-induced edema in certain animals ([1]; 50 μg on the ear) [%] | Mean difference ([1]; 50 μg/ear) [mg] | inhibition in vivo at 25 µg/ear [1, 6] [%] | inhibition in vivo at 50 µg/ear [1, 7] [%] | ED50 for inhibition of RTX-induced edema [1] | also measured
CS(=O)(=O)Oc1ccc2c(C(=O)c3nc(-c4c[nH]c5cc(Br)ccc45)c[nH]3)c[nH]c2c1 [o-mesylbromotopsentin, bromotopsentin-O-mesylate] | 9.2 | 7.2 | 8.3 | 2.3 | 70 | 3 | 77.6 | 70.3 | about 17 μg/ear | inhibition in vivo at 3.12 µg/ear [1, 3]: 8.9%; inhibition in vivo at 6.25 µg/ear [1, 4]: 28%; inhibition in vivo at 12.5 µg/ear [1, 5]: 86.8%
NCC(c1c[nH]c2cc(Br)ccc12)c1c[nH]c2cc(Br)ccc12 [2,2-bis(6-bromoindol-3-yl)ethyl amine] | 11.9 | 13.2 | 5.8 | 2.1 | ~100 | 0.1 | 81.5 | ~99 | about 18.1 μg/ear | inhibition in vivo at 3.12 µg/ear [1, 3]: 6.8%; inhibition in vivo at 6.25 µg/ear [1, 4]: 18%; inhibition in vivo at 12.5 µg/ear [1, 5]: 86.8%
Brc1ccc2c(-c3nc(-c4c[nH]c5ccccc45)c[nH]3)c[nH]c2c1 [Nortopsentin B] |  |  |  |  |  | 0.9 |  | 91.2 |  | 
O=C(c1nc(-c2c[nH]c3ccccc23)c[nH]1)c1c[nH]c2cc(O)ccc12 [Topsentin] |  |  |  | 8.3 |  | 2.6 | 41 | 82 | about 20 μg/ear | % Inhibition of capsaicin-induced edema ([2]; 100 μg/ear): 28%; Inflammation (mg) ± SEM ([2]; 100 μg/ear topical, capsaicin 250 μg/ear): 4.8 ± 1.0 mg; % Inhibition of capsaicin-induced edema ([2]; 100 μg/ear, listed as topsentin): more than 25%; % Inhibition of capsaicin-induced edema ([2]; 250 μg/ear): 66%; % Inhibition of capsaicin-induced edema ([2]; 500 μg/ear): 74%; % Inhibition of capsaicin-induced edema ([2]; 1000 μg/ear): 90%; potency in inhibiting neurogenic inflammation compared with capsazepine [2]: greater potency in inhibiting neurogenic inflammation than capsazepine; ED50 in inhibition of capsaicin-induced inflammation ([2]; dose-response curve, FIG. 1): about 200 μg/ear; percent inhibition of edema (up to) ([2]; final concentration of about 1000 μM): approximately 90%; Mean difference ([1]; 5 μg/ear): 12.3 mg; Mean difference ([1]; 10 μg/ear): 9.6 mg; inhibition of RTX-induced edema in certain animals ([1]; 100 μg on the ear): about 100%; Mean difference ([1]; 100 μg/ear): 1.3 mg; inhibition in vivo at 5 µg/ear ([1]; Mus musculus, topical, 5 μg/ear, read-out: % Inh. of Edema): ~12%; inhibition in vivo at 10 µg/ear ([1]; Mus musculus, topical, 10 μg/ear, read-out: % Inh. of Edema): 31%; inhibition in vivo at 100 µg/ear ([1]; Mus musculus, topical, 100 μg/ear, read-out: % Inh. of Edema): ~91%
O=C(C1=NC(c2c[nH]c3cc(Br)ccc23)CN1)c1c[nH]c2ccccc12 (centres unmarked) [4,5-dihydro-6"-deoxybromotopsentin] |  |  |  |  |  | 3.3 |  | 87.1 |  | 
CC(c1c[nH]c(N)n1)c1ccc(O)c2[nH]cc(-c3cnc(-c4c[nH]c5cc(Br)ccc45)c(=O)[nH]3)c12 (centres unmarked) [Dragmacidin d, Dragmacidin-d] |  |  |  |  |  | 1.4 |  | 89.6 |  | 
Brc1ccc2c(-c3c[nH]c(-c4c[nH]c5ccccc45)n3)c[nH]c2c1 [Nortopsentin C] | 9.3 | 5.4 | 1.3 | 1.0 | ~100 | 0.2 | 90.2 | ~98 | about 8 μg/ear | inhibition in vivo at 3.12 µg/ear [1, 3]: 5.9%; inhibition in vivo at 6.25 µg/ear [1, 4]: 45%; inhibition in vivo at 12.5 µg/ear [1, 5]: 86.8%
O=C(c1nc(-c2c[nH]c3cc(Br)ccc23)c[nH]1)c1c[nH]c2cc(O)ccc12 [Bromotopsentin] |  |  |  |  |  |  |  |  |  | % Inhibition of capsaicin-induced edema ([2]; 500 μg/ear): 79%; potency in inhibiting neurogenic inflammation compared with capsazepine [2]: greater potency in inhibiting neurogenic inflammation than capsazepine
Oc1cc2c(cc1O)CN(C(=S)NCCc1ccc(Cl)cc1)CCC2 [Capsazepine, reference compound] |  |  |  |  |  |  |  |  |  | % Inhibition of capsaicin-induced edema ([2]; 500 μg/ear): 33%; % Inhibition of capsaicin-induced edema ([2]; 1000 μg/ear): 52%; % Inhibition of capsaicin-induced edema ([2]; 1500 μg/ear): 76%
Brc1ccc2c(-c3c[nH]c(-c4c[nH]c5cc(Br)ccc45)n3)c[nH]c2c1 [Nortopsentin A] |  |  |  |  |  | -0.4 |  | 100 |  | 
O=C1NC[C@H](c2c[nH]c3cc(Br)ccc23)N=C1c1c[nH]c2cc(Br)ccc12 [Hamacanthin B] | 3.9 | 6.7 | 4.9 | 2.3 | ~100 | 0.4 |  |  | about 1.5 μg/ear | % Inh. of Edema ([1]; 3.12 μg/ear, listed as Hamacanthin b): 68%; % Inh. of Edema [1, 8]: 68.8%; Difference (mg), left minus right ear, individual animal [1, 8]: 4.4 mg and 6.9 mg and 1.5 mg and 1.2 mg and 5.3 mg; % Inh. of Edema ([1]; 6.25 μg/ear): 46.0%; Difference (mg), left minus right ear, individual animal ([1]; 6.25 μg/ear): 6.9 mg and 7.4 mg and 7.0 mg and 8.4 mg and 5.4 mg; % Inh. of Edema ([1]; 12.5 μg/ear): 86.8%; Difference (mg), left minus right ear, individual animal ([1]; 12.5 μg/ear): 4.6 mg and 4.1 mg and 6.1 mg and 8.3 mg and 1.4 mg; % Inh. of Edema ([1]; 25 μg/ear): 81.6%; Difference (mg), left minus right ear, individual animal ([1]; 25 μg/ear): 2.3 mg and 4.2 mg and 2.0 mg and 1.0 mg and 1.9 mg; % Inh. of Edema ([1]; 50 μg/ear, listed as Hamacanthin b): about 97%; % Inh. of Edema [1, 9]: 96.9%; Difference (mg), left minus right ear, individual animal [1, 9]: 0.2 mg and 0.0 mg and 1.4 mg and 0.1 mg
